Article PMC10726440, “N-Biphenyl Pyrrolinones and Dibenzofurans as RNA-Binding Protein LIN28 Inhibitors Disrupting the LIN28–Let-7 Interaction” (ACS Medicinal Chemistry Letters, 2023)
Where “and” joins values, the source holds several entries; their conditions need not be identical. Identical values can stand only once.

Target: T1, LIN28A(16–187)–let-7 interaction (Homo sapiens, UniProt Q9H9Z2)
T1 construct: LIN28A(16–187) or LIN28B(24–111); pET19a or pMAL vector) (cleaved yes); made in house; host or cells: Escherichia coli BL21(DE3)
T1 sequence (Q9H9Z2 16-187): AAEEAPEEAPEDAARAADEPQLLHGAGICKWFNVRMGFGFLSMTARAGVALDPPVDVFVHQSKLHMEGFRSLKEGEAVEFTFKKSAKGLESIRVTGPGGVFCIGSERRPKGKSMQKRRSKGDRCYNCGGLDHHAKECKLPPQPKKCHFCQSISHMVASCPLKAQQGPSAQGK
Experiment: Electrophoretic mobility shift assay (EMSA), disruption of LIN28–let-7 complex
Type: binding
Details: for inhibition of the LIN28–let-7 interaction measured in EMSA / inhibition at 75 µM: single concentration of 75 μM; for inhibition at 75 µM: read-out: inhibition of the LIN28–let-7 interaction measured in EMSA; for IC50: concentration-dependent EMSA, some values estimated, read-out: IC50 in dose–response EMSA
Description: Inhibition of the LIN28–let-7 complex was evaluated by electrophoretic mobility shift assays. Mixtures containing compound at indicated concentrations, LIN28A(16–187) or LIN28B(24–111), and recombinant ribonuclease inhibitor (TaKaRa Bio) were incubated at room temperature for 2 h. The reaction buffer contained 50 mM TRIS, pH 7.5, 100 mM NaCl, 10 mM β-mercaptoethanol, 50 μM ZnCl2, 2% DMSO, 0.01% Tween-20 and 12% glycerol. Cy-3-fluorophore labeled RNA, (pre-E let-7f-1-Cy3, Mus musculus, […]-Cy3, purchased from IDT) was added to the reaction and incubated for further 15 min. The final concentrations were as follows: 10 nM LIN28A or 200 nM LIN28B, 5 nM RNA. Of each mixture, 10 μL was analyzed on a nondenaturing PAGE (5.3% acrylamide TAE PAGE for full-length LIN28 and 10% acrylamide TAE PAGE for analysis of the CSD) prerun for 1 h without sample and run for 1 h at 220 V at 4 °C in 0.25× TAE buffer. Gels were imaged using a ChemiDoc MP instrument (Bio-Rad Laboratories). Band intensities were analyzed using ImageJ and inhibition was quantified by calculation of the ratio of free RNA fluorescence to the fluorescence of the protein–RNA complex, and normalization to free RNA and LIN28–let-7 complex controls. The intensity ratio was analyzed by nonlinear regression fit in GraphPad Prism to determine the IC50 values.

inhibition of the LIN28–let-7 interaction measured in EMSA | inhibition at 75 µM [%] | SMILES | also measured
inactive | – | NC1=C(C(=O)c2ccccc2)[C@@H](c2ccc([N+](=O)[O-])cc2)N(c2ccc(O)c(C(=O)O)c2)C1=O [Compound 22] | inhibition of the LIN28–let-7 interaction measured in EMSA (75 µM): none of these aforementioned enantiomerically pure molecules were active
– | 83 | Cc1ccc(C(=O)C2=C(O)C(=O)N(c3cccc(-c4ccccc4)c3)C2c2ccc([N+](=O)[O-])cc2)o1 (centres unmarked) [Compound 36] | –
– | 87 | COc1ccc(C(=O)C2=C(O)C(=O)N(c3cccc(-c4ccccc4)c3)C2c2ccc([N+](=O)[O-])cc2)cc1 (centres unmarked) [Compound 31] | –
– | 8 | O=C(C1=C(O)C(=O)N(c2cccc(-c3ccccc3)c2)C1c1ccc([N+](=O)[O-])cc1)c1nccs1 (centres unmarked) [Compound 38] | –
– | 99.9 | O=C(C1=C(O)C(=O)N(c2ccc(O)c(C(=O)O)c2)C1c1ccc2cnccc2c1)c1ccccc1 (centres unmarked) [Compound 9] | IC50: < 15 µM and ~5 µM
– | 53 | O=C(C1=C(O)C(=O)N(c2ccc3oc4ccccc4c3c2)C1c1ccc([N+](=O)[O-])cc1)c1ccc(Br)cc1 (centres unmarked) [Compound 41] | –
– | 95.4 | O=C(C1=C(O)C(=O)N(c2ccc(O)c(C(=O)O)c2)C1c1ccc2[nH]nnc2c1)c1ccccc1 (centres unmarked) [Compound 6] | IC50: 20 µM and ~20 µM
– | 8 | O=C(C1=C(O)C(=O)N(c2cccc(-c3ccccc3)c2)C1c1ccc([N+](=O)[O-])cc1)C1CCC1 (centres unmarked) [Compound 26] | –
– | 75 | Cn1cccc1C(=O)C1=C(O)C(=O)N(c2cccc(-c3ccccc3)c2)C1c1ccc([N+](=O)[O-])cc1 (centres unmarked) [Compound 37] | –
– | 95 | O=C(C1=C(O)C(=O)N(c2ccc3c(c2)oc2ccccc23)C1c1ccc([N+](=O)[O-])cc1)c1ccco1 (centres unmarked) [Compound 49] | inhibition of LIN28–let-7 complex formation in concentration-dependent EMSA (in words) (dose–response EMSA): best inhibitory activities among the evaluated molecules
inactive | – | N=C1CC=CC=C1C1=C(N)C(=O)N(c2ccc(O)c(C(=O)O)c2)[C@@H]1c1ccc([N+](=O)[O-])cc1 [Compound 23] | inhibition of the LIN28–let-7 interaction measured in EMSA (75 µM): none of these aforementioned enantiomerically pure molecules were active
active | ≥ 60 | O=C(O)c1cc(N2C(=O)C(O)=C(c3nccs3)C2c2ccc([N+](=O)[O-])cc2)ccc1O (centres unmarked) [Compound 5] | IC50: 32 µM
inactive | – | O=C(O)c1cc(N2C(=O)c3c(c(-c4ccccc4)nn3Cc3ccccc3)C2c2ccc([N+](=O)[O-])cc2)ccc1O (centres unmarked) [Compound 15] | –
active | 102 | COc1ccc(CN/C(=C2\C(=O)C(=O)N(c3ccc(O)c(C(=O)O)c3)C2c2ccc([N+](=O)[O-])cc2)c2ccccc2)cc1 (centres unmarked) [Compound 13] | IC50: 26 µM
– | 76 | O=C(C1=C(O)C(=O)N(c2cccc(-c3ccccc3)c2)C1c1ccc([N+](=O)[O-])cc1)c1ccc(F)cc1 (centres unmarked) [Compound 32] | –
– | 93 | O=C(C1=C(O)C(=O)N(c2ccc3c(c2)oc2ccccc23)C1c1ccc([N+](=O)[O-])cc1)c1ccc(F)cc1 (centres unmarked) [Compound 48] | –
– | 90 | O=C(C1=C(O)C(=O)N(c2ccc3oc4ccccc4c3c2)C1c1ccc([N+](=O)[O-])cc1)c1ccco1 (centres unmarked) [Compound 44] | –

SMILES | inhibition of the LIN28–let-7 interaction measured in EMSA | inhibition at 75 µM [%] | also measured
O=C(O)c1cc(N2C(=O)C(O)=C(Cc3ccccc3)[C@H]2c2ccc([N+](=O)[O-])cc2)ccc1O [Compound 19] | none of these aforementioned enantiomerically pure molecules were active | – | –
O=C(C1=C(O)C(=O)N(c2cccc([N+](=O)[O-])c2)[C@@H]1c1ccc([N+](=O)[O-])cc1)c1ccccc1 [Compound 21] | none of these aforementioned enantiomerically pure molecules were active | – | –
O=C(O)c1cc(N2C(=O)C(O)=C(Cc3ccccc3)[C@@H]2c2ccc([N+](=O)[O-])cc2)ccc1O [Compound 18] | none of these aforementioned enantiomerically pure molecules were active | – | –
